What was measured:
hBPGM = hBPGM (Homo sapiens (Human), UniProt P07738); experiment: BPGM Synthase Assay; format: biochemical; settings: Table 6 additional results; read-out: huBPGM: synthase Enzyme IC50
Procedure, shortened: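 BPGM (5 nM) with GAPDH (0.4 U/mL) was incubated with compound for 30 min at RT in pH 7.4 Tris buffer with 3.23 mM KH2PO4 and 1 mM DTT. Reaction ran 60 min with NAD, 3PG and GAP (substrate solution 2 mM, 20 μM and 800 μM). After koningic acid stop, NADH fluorescence was read, then resorufin from diaphorase/resazurin coupling.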

[1] = target: human Bisphosphoglycerate mutase (hBPGM) (Homo sapiens (Human), UniProt P07738); experiment: BPGM Phosphatase Assay; format: biochemical; settings: Table 6 additional results; read-out: huBPGM: phosphatase Enzyme EC50
Method: Solutions of the test compounds were then added to the plate and the DMSO content was normalized across the plate. The plate was incubated at RT for 15 min. Next, the substrate 2,3-BPG (5 μL) was added to all the wells, and the plate was sealed and incubated for 24 hr at RT. After incubation, BIOMOL green dye (40 μL) was added to all the wells, the plate was shaken to mix, and the plate was incubated at RT for 20-30 min.

human red blood cells = experiment: Human Cell-Based Assay; settings: Erythrocyte; human whole blood suspension, 37° C., 24 h; metabolites (2,3-BPG, ATP) by LC/MS; read-out: hRBC EC50
Method: Example B3. Human Cell-Based Assay
The following materials were used in this assay: DMSO; Hemox buffer (30 mM TES, 135 mM NaCl, 5 mM KCl, pH 7.4); Inosine (100 mM in hemox buffer); Glucose (1 M in water); human red blood cells; LC/MS Optima grade methanol; LC/MS Optima grade water; and Incubation buffer (30 mM TES, 135 mM NaCl, 5 mM KCl, 50 mM inosine, 20 mM glucose pH 7.4).
Test compounds were loaded onto a 96-well plate (final concentration of DMSO was 1%). 10 mL whole blood was resuspended with an equivalent amount of 2× incubation buffer to make 25% het & 50% plasma solution. The final solution contains 10 mM glucose and 25 mM inosine. The blood suspension (100 uL) was added to the wells of the plate. The plate was covered with an adhesive foil cover and plastic lid, and incubated at 37° C. for 24 h. The samples were extracted through an SPE column and the metabolites (2,3-BPG, ATP) were analyzed by LC/MS.

Chain of hBPGM (P07738 whole entry, looked up): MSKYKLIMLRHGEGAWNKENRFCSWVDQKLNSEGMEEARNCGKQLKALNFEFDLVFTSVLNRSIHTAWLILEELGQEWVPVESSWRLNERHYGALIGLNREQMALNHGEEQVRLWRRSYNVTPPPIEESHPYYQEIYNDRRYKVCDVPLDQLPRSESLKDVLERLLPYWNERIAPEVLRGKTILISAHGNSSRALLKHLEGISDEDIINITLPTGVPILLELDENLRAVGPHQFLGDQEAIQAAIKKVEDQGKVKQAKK
Chain of human Bisphosphoglycerate mutase (hBPGM) (P07738 whole entry): as the sequence (P07738 whole entry, looked up) above

Row | EC50 (human red blood cells) [nM] | SMILES | IC50 (hBPGM) [nM] | EC50 [1] [nM]
1 |  | Cc1nc(CNC(=O)C2CC2)sc1-c1csc(-c2cc(O)c(C(=O)O)cc2F)n1 [Example 232] | 60 | 93
2 |  | Cc1nc(CNC(=O)C2CC2)sc1-c1csc(-c2cc(O)c(C(=O)O)cc2F)c1 [Example 233] | 78 | 110
3 |  | Cc1nc(CNC(=O)OC(C)C)sc1-c1csc(-c2cc(O)c(C(=O)O)cc2F)n1 [Example 234] | 84 | 80
4 |  | COC(=O)NCc1nc(C)c(-c2cccc(-c3cc(O)c(C(=O)O)cc3F)n2)s1 [Example 235] | 110 | 140
5 |  | Cc1nc(CNC(=O)C2CC2)sc1-c1cccc(-c2cc(O)c(C(=O)O)cc2F)n1 [Example 236] | 130 | 360
6 |  | Cc1nc(Cc2cccnc2)sc1-c1cccc(-c2ccc(C(=O)O)c(O)c2)n1 [Example 237] | 140 | 170
7 |  | COC(=O)NCc1nc(C)c(-c2csc(-c3ccc(C(=O)O)cc3F)n2)s1 [Example 238] | 1300 | > 25000
8 |  | COC(=O)NCc1nc(C)c(-c2csc(-c3ccc(C(=O)O)cc3)n2)s1 [Example 239] | 730 | > 25000
9 |  | Cc1nc(C)c(-c2csc(-c3ccc(C(=O)O)c(O)c3F)n2)s1 [Example 240] | 2300 | 2500
10 |  | Cc1nc(CN)sc1-c1csc(-c2cc(O)c(C(=O)O)cc2F)n1 [Example 243] | 830 | 990
11 |  | Cc1nc(CN)sc1-c1csc(-c2ccc(C(=O)O)c(O)c2)c1 [Example 244] | 840 | > 25000
12 |  | Cc1nc(CNC(=O)C2CC2)sc1-c1ccc(-c2ccc(C(=O)O)c(O)c2)s1 [Example 245] | 690 | 820
13 |  | Cc1nc(CNc2ccccn2)sc1-c1cccc(-c2ccc(C(=O)O)c(O)c2)c1 [Example 246] | 820 | 110
14 |  | Cc1nc(CNC(=O)C2COC2)sc1-c1cccc(-c2ccc(C(=O)O)c(O)c2)c1 [Example 247] | 1000 | 3900
15 |  | Cc1nc(Cn2cccn2)sc1-c1csc(-c2cc(O)c(C(=O)O)cc2F)n1 [Example 248] | 110 | 110
16 |  | Cc1nc(CNC(=O)C2CC2)sc1-c1csc(-c2ccc(C(=O)O)c(O)c2)n1 [Example 249] | 180 | 210
17 |  | Cc1nc(Cc2cccnc2)sc1-c1csc(-c2ccc(C(=O)O)c(O)c2)n1 [Example 250] | 250 | 290
18 |  | Cc1nc(CN)sc1-c1csc(-c2cc(O)c(C(=O)O)cc2F)c1 [Example 251] | 270 | 400
19 |  | Cc1nc(COC(N)=O)sc1-c1cccc(-c2ccc(C(=O)O)c(O)c2)c1 [Example 252] | 1000 | 1000
20 |  | Cc1nc(Cc2ccn(C)n2)sc1-c1cccc(-c2ccc(C(=O)O)c(O)c2)c1 [Example 253] | 190 | 150
21 |  | Cc1nc(C)c(-c2csc(-c3cc(O)c(C(=O)O)cc3F)c2)s1 [Example 254] | 290 | 220
22 |  | Cc1nc(C)c(-c2csc(-c3cc(O)c(C(=O)O)c(F)c3)n2)s1 [Example 255] | 760 | 1800
23 |  | Cc1nc(COc2cccc(C#N)n2)sc1-c1cccc(-c2ccc(C(=O)O)c(O)c2)c1 [Example 256] | 880 | 70
24 |  | Cc1ccc(Cc2nc(C)c(-c3cccc(-c4ccc(C(=O)O)c(O)c4)c3)s2)cn1 [Example 257] | 360 | 160
25 |  | Cc1nc(C)c(-c2cccc(-c3cc(O)c(C(=O)O)cc3F)n2)s1 [Example 259] | 570 | > 25000

Row | EC50 (human red blood cells) [nM] | SMILES | IC50 (hBPGM) [nM] | EC50 [1] [nM]
26 |  | Cc1nc(CN2CCCC2=O)sc1-c1cccc(-c2ccc(C(=O)O)c(O)c2)c1 [Example 260] | 1400 | 5600
27 |  | Cc1nc(Cn2cccn2)sc1-c1cccc(-c2cc(O)c(C(=O)O)cc2F)c1 [Example 262] | 530 | 510
28 |  | Cc1nc(CN2CCOC2=O)sc1-c1cccc(-c2ccc(C(=O)O)c(O)c2)c1 [Example 263] | 1300 | 1400
29 |  | Cc1nc(Cn2c(C)cccc2=O)sc1-c1cccc(-c2ccc(C(=O)O)c(O)c2)c1 [Example 267] | 520 | 350
30 |  | Cc1cccc(OCc2nc(C)c(-c3cccc(-c4ccc(C(=O)O)c(O)c4)c3)s2)n1 [Example 269] | 2000 | 270
31 |  | COCCOCCOCCOCc1nc(C)c(-c2csc(-c3ccc(C(=O)O)cc3)n2)s1 [Example 270] | 4600 | > 25000
32 |  | COC(=O)NCc1nc(C)c(-c2cccc(-c3ccc(C(=O)O)c(O)c3)c2)s1 [Example 272] | 290 | 520
33 |  | Cc1nc(Cc2cccnc2)sc1-c1cccc(-c2ccc(C(=O)O)c(O)c2)c1 [Example 273] | 390 | 170
34 |  | Cc1nc(C)c(-c2csc(-c3ccc(C(=O)O)c(O)c3)c2)s1 [Example 274] | 430 | 390
35 |  | Cc1nc(C)c(-c2nc(-c3ccc(C(=O)O)c(O)c3)co2)s1 [Example 275] | 5000 | > 25000
36 |  | Cc1nc(CNC(=O)C2CC2)sc1-c1cccc(-c2ccc(C(=O)O)c(O)c2)c1 [Example 276] | 480 | 590
37 |  | Cc1nc(Cc2cccnc2)sc1-c1cccc(-c2ccc(C(=O)O)cc2)c1 [Example 277] | 860 | 1100
38 |  | CC(=O)NCc1nc(C)c(-c2cccc(-c3ccc(C(=O)O)c(O)c3)c2)s1 [Example 278] | 900 | 2100
39 |  | Cc1cccc(Cc2nc(C)c(-c3cccc(-c4ccc(C(=O)O)c(O)c4)c3)s2)n1 [Example 279] | 2600 | 6900
40 |  | Cc1nc(Cc2ccccc2)sc1-c1csc(-c2ccc(C(=O)O)c(O)c2)n1 [Example 280] | 330 | 140
41 |  | Cc1nc(Cc2ccncc2)sc1-c1cccc(-c2ccc(C(=O)O)c(O)c2)c1 [Example 281] | 730 | 120
42 |  | Cc1nc(Cc2ccccn2)sc1-c1cccc(-c2ccc(C(=O)O)c(O)c2)c1 [Example 282] | 750 | 110
43 |  | Cc1nc(C)c(-c2nsc(-c3ccc(C(=O)O)c(O)c3)n2)s1 [Example 283] | 1300 | 6500
44 |  | Cc1nc(C)c(-c2csc(-c3cc(O)c(C(=O)O)cn3)n2)s1 [Example 284] | 2800 | 2900
45 |  | Cc1nc(C)c(-c2csc(-c3cc(O)c(C(=O)O)cc3F)n2)s1 [Example 285] | 320 | 400
46 |  | Cc1nc(Cn2cccn2)sc1-c1cccc(-c2ccc(C(=O)O)c(O)c2)c1 [Example 286] | 810 | 3100
47 |  | Cc1nc(Cc2ccccc2)sc1-c1cccc(-c2ccc(C(=O)O)c(O)c2)c1 [Example 289] | 1200 | 130
48 | > 100000 | Cc1nc(COc2ncccn2)sc1-c1cccc(-c2ccc(S(=O)(=O)CC(=O)O)cc2)n1 [compound 2, 2-[4-[6-[4-methyl-2-(pyrimidin-2-yloxymethyl)thiazol-5-yl]-2-pyridyl]phenyl]sulfonylacetic Acid] |  | 
49 | 23500 | Cc1nc(COc2ccccn2)sc1-c1cccc(-c2ccc(C(=O)O)c(O)c2)c1 [compound 4, 2-hydroxy-4-[3-[4-methyl-2-(2-pyridyloxymethyl)thiazol-5-yl]phenyl]benzoic Acid] |  | 
